Experimental data reported in US6514993B1, “Serotonin 5-HT1A and dopamin D2 receptor ligands” (H. Lundbeck A/S, priority 1994, dated 2003).
Where a name gives a salt, the structure may show the parent alone.

Experiments:
[1] = biological target: T1, 5-HT1A receptors (Rattus norvegicus, UniProt P19327); test: Inhibition of 3H-8-OH-DPAT binding to serotonin 5-HT1A receptors in rat brain in vitro; set-up: 5-HT1A receptors in membranes from rat brain minus cerebellum; from tissue; host or cells: rat brain minus cerebellum (membranes); conditions: 3H-8-OH-DPAT 1 nM, membranes from rat brain minus cerebellum
T1 sequence (P19327 1-422): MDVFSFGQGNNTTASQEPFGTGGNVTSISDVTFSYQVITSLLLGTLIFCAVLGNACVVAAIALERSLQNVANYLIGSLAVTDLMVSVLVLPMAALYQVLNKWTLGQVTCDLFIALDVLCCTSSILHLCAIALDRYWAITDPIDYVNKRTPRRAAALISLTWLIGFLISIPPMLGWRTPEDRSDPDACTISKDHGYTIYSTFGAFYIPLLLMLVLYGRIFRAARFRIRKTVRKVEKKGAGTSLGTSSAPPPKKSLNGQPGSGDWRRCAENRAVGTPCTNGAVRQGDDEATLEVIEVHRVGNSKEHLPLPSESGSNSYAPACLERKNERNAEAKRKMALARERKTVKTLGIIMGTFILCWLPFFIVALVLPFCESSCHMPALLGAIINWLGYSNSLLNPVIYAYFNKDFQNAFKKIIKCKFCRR
Description: Inhibition of ^3H8-OH-DPAT Binding to Serotonin 5-HT1A Receptors in Rat Brain in vitro
By this method the inhibition by drugs of the binding of the 5-HT1A agonist 3H-8-OH-DPAT (1 nM) to 5-HT1A receptors in membranes from rat brain minus cerebellum is determined in vitro. Accordingly, this is a test for affinity for the 5-HT1A receptor. The test was performed as described by Hyttel et al., Drug Dev. Res. 1988, 15, 389-404.

[2] = Cataleptogenic effect; set-up: species or system rats; conditions: rat, in vivo; 1-6 h, sc; read-out: Catalepsy ED50
Description: Evaluation of cataleptogenic effects of the compounds of the invention was made according to the method of Sanchez, C. et al.; Drug Dev. Res. 1991, 22, 239-250.

[3] = biological target: dopamine D2 receptors (Rattus norvegicus, UniProt P61169); test: Inhibition of 3H-spiroperidol binding to dopamine D2 receptors in rat brain in vitro; conditions: 3H-spiroperidol 0.5 nM, membranes from rat corpus striatum; read-out: 3H Spiroperidole (D2) binding IC50
Chain of dopamine D2 receptors (P61169 1-415 isoform P61169-2): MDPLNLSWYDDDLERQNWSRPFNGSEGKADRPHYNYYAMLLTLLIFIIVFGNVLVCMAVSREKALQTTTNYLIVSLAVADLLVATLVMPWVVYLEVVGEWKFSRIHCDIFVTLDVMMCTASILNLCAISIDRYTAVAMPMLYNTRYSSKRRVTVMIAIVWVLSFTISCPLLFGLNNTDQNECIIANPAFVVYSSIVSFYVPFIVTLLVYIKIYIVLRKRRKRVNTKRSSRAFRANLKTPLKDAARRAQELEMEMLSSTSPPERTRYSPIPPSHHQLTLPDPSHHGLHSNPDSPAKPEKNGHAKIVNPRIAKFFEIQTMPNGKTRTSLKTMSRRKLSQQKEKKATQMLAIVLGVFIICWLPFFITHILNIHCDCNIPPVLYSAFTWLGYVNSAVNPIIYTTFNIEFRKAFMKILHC
Description: Inhibition of 3H-spiroperidol Binding to Dopamine D2 Receptors in Rat Brain in vitro
By this method the inhibition by drugs of the binding of the D2 antagonist ^3H-spiroperidol (0.5 nM) to D2 receptors in membranes from rat corpus striatum is determined in vitro. Accordingly, this is a test for affinity for the dopamine D2 receptor.

[4] = biological target: T1, 5-HT1A receptors; set-up: antagonist effects of a test compound on 5-HT1A receptors in vivo; from tissue; host or cells: whole animal (rat), in vivo behavioural test; conditions: partial 5-HT1A agonists; cited from earlier work

Row | SMILES | melting point | IC50 [1] | ED50 [2] | IC50 [3] | Inhibition of 5-MeO-DMT-induced 5-HT syndrome (general statement) [4]
1 | CC(C)(C)COc1ccccc1C1CCN(CCCCN2CCN(C3CCCCC3)C2=O)CC1.O=C(O)C(=O)O | 162 to 168 °C | – | – | – | –
2 | CC(C)Oc1ccccc1C1CCN(CCCCn2ccn(C34CC5CC(CC(C5)C3)C4)c2=O)CC1.O=C(O)C(=O)O | 116 to 122 °C | – | – | – | –
3 | CC(C)Oc1ccccc1C1=CCN(CCCCn2ccn(C34CC5CC(CC(C5)C3)C4)c2=O)CC1.O=C(O)C(=O)O | 104 to 109 °C | – | – | – | –
4 | O=C1N(CCCCN2CCN(c3ccccc3OS(=O)(=O)C(F)(F)F)CC2)CCN1C1CCCCC1 (as salt: hydrochloride) [Compound 7b, 3-Cyclohexyl-1-[4-[4-[2-(2-trifluoromethylsulfonyloxy)phenyl]-1-piperazinyl]butan-1-yl]-2-imidazolidinone, hydrochloride] | 153 to 154 °C | – | – | – | –
5 | CC(C)Oc1ccccc1N1CCN(CCCCN2CCN(C3CCCCC3)C2=O)CC1.O=C(O)C(=O)O [Compound 4a, 3-Cyclohexyl-1-[4-[4-[2-(2-propyloxy)phenyl]-1-piperazinyl]butan-1-yl]-2-imidazolidinone, Oxalate] | – | 1.8 nM | > 38 µmol/kg | 6.4 nM | –
6 | CC(C)Oc1ccccc1N1CCN(CCCCN2CCN(c3ccc(F)cc3)C2=O)CC1 [Compound 4b, 3-(4-Fluorophenyl)-1-[4-[4-[2-(2-propyloxy)phenyl]-1-piperazinyl]butan-1-yl]-2-imidazolidinone] | 135 to 137 °C | 2.2 nM | > 44 µmol/kg | 3.9 nM | –
7 | Cl.Cl.O=C1N(CCCCN2CCN(c3ccccc3OC3CCCC3)CC2)CCN1C1CCCCC1 [Compound 4c, 3-Cyclohexyl-1-[4-[4-(2-cyclopentyloxyphenyl)-1-piperazinyl]butan-1-yl]-2-imidazolidinone, dihydrochloride] | 182 to 193 °C | 5.4 nM | > 37 µmol/kg | 13 nM | –
8 | O=C1N(CCCCN2CCN(c3ccccc3OC3CCCC3)CC2)CCN1c1ccc(F)cc1 [Compound 4d, 1-[4-[4-(2-Cyclopentyloxyphenyl)-1-piperazinyl]butan-1-yl]-3-(4-fluorophenyl)-2-imidazolidinone] | 111 to 116 °C | 4 nM | > 42 µmol/kg | 15 nM | –
9 | CC(C)Oc1ccccc1N1CCN(CCCN2CCN(c3ccccc3)C2=O)CC1 [Compound 4e, 1-[3-[4-(2-(2-propyloxy)phenyl)-1-piperazinyl]-1-propyl]-3-phenyl-2-imidazolidinone] | 167 to 168 °C | 40 nM | > 34 µmol/kg | 24 nM | –
10 | CC(C)Oc1ccccc1C1CCN(CCCCN2CCN(c3ccc(F)cc3)C2=O)CC1.O=C(O)C(=O)O [Compound 6a, 3-(4-Fluorophenyl)-1-[4-[4-[2-(2-propyloxy)phenyl]-1-piperidinyl]butan-1-yl]-2-imidazolidinone, Oxalate] | – | 4.8 nM | > 44 µmol/kg | 7.9 nM | –
11 | CC(C)Oc1ccccc1C1CCN(CCCCN2CCN(C3CCCCC3)C2=O)CC1.O=C(O)C(=O)O [Compound 6b, 3-Cyclohexyl-1-[4-[4-[2-(2-propyloxy)phenyl]-1-piperidinyl]butan-1-yl]-2-imidazolidinone, oxalate] | 138 to 141 °C | 5.4 nM | > 38 µmol/kg | 8.7 nM | –
12 | CC(C)Oc1ccccc1C1CCN(CCCN2CCN(C3CCCCC3)C2=O)CC1.O=C(O)C(=O)O [Compound 6c, 3-Cyclohexyl-1-[3-[4-[2-(2-propyloxy)phenyl]-1-piperidinyl]-1-propyl]-2-imidazolidinone, oxalate] | 136 to 139 °C | 35 nM | – | 110 nM | –
13 | CC(C)Oc1ccccc1C1CCN(CCCCN2CCN(C(C)C)C2=O)CC1.O=C(O)C(=O)O [Compound 6d, 3-(2-Propyl)-1-[4-[4-[2-(2-propyloxy)phenyl]-1-piperidinyl]-1-butyl]-2-imidazolidinone, oxalate] | 82 to 84 °C | 5 nM | > 41 µmol/kg | 7.7 nM | –
14 | CC(C)Oc1ccccc1C1CCN(CCCCCCN2CCN(C3CCCCC3)C2=O)CC1.O=C(O)C(=O)O [Compound 6e, 3-Cyclohexyl-1-[6-[4-[2-(2-propyloxy)phenyl]-1-piperidinyl]-1-hexyl]-2-imidazolidinone, oxalate] | 77 to 79 °C | 20 nM | > 33 µmol/kg | 16 nM | –
15 | O=C(O)C(=O)O.O=C1N(CCCCN2CCC(c3ccccc3OCC3CC3)CC2)CCN1C1CCCCC1 [Compound 6f, 3-Cyclohexyl-1-[4-[4-[2-(cyclopropylmethoxy)phenyl]-1-piperidinyl]butan-1-yl]-2-imidazolidinone, oxalate] | 186 to 193 °C | 26 nM | – | 37 nM | –
16 | CC(C)Oc1ccccc1C1CCN(CCCCn2ccn(C3CCCCC3)c2=O)CC1.O=C(O)C(=O)O [Compound 6h, 3-Cyclohexyl-1-[4-[4-[2-(2-propyloxy)phenyl]-1-piperidinyl]butan-1-yl]-1,3-dihydroimidazol-2-one, oxalate] | 68 to 71 °C | 4.1 nM | > 38 µmol/kg | 10 nM | –
17 | O=C1N(CCCCN2CCC(c3ccccc3OS(=O)(=O)C(F)(F)F)CC2)CCN1c1ccc(F)cc1 [Compound 7a, 3-(4-Fluorophenyl)-1-[4-[4-[2-(2-trifluoromethylsulfonyloxy)phenyl]-1-piperidinyl]butan-1-yl]-2-imidazolidinone] | – | 37 nM | – | 41 nM | –
18 | O=C1N(CCCCN2CCN(c3ccccc3OS(=O)(=O)C(F)(F)F)CC2)CCN1C1CCCCC1 [Compound 7b, 3-Cyclohexyl-1-[4-[4-[2-(2-trifluoromethylsulfonyloxy)phenyl]-1-piperazinyl]butan-1-yl]-2-imidazolidinone, hydrochloride] | – | 42 nM | > 35 µmol/kg | 49 nM | –
19 | O=C1N(CCCCN2CCN(c3ccccc3OS(=O)(=O)C(F)(F)F)CC2)CCN1c1ccc(F)cc1 [Compound 7c, 3-(4-Fluorophenyl)-1-[4-[4-[2-(2-trifluoromethylsulfonyloxy)phenyl]-1-piperazinyl]butan-1-yl]-2-imidazolidinone] | 68 to 70 °C | 15 nM | > 37 µmol/kg | 57 nM | –
20 | CC(C)Oc1ccccc1C1=CCN(CCCCN2CCN(C3CCCCC3)C2=O)CC1.O=C(O)C(=O)O [Compound 9a, 3-Cyclohexyl-1-[4-[4-[2-(2-propyloxy)phenyl]-1,2,3,6-tetrahydropyridin-1-yl]butan-1-yl]-2-imidazolidinone Oxalate] | – | 9 nM | > 38 µmol/kg | 8.7 nM | –
21 | CC(C)Oc1ccccc1C1=CCN(CCCCN2CCN(c3ccc(F)cc3)C2=O)CC1.O=C(O)C(=O)O [Compound 9b, 3-(4-Fluorophenyl)-1-[4-[4-[2-(2-propyloxy)phenyl]-1,2,3,6-tetrahydropyridin-1-yl]butan-1-yl]-2-imidazolidinone oxalate] | 150 to 152 °C | 2.8 nM | > 37 µmol/kg | 11 nM | –
22 | CC(C)Oc1ccccc1C1=CCN(CCCCn2ccn(C3CCCCC3)c2=O)CC1 [Compound 9d, 3-Cyclohexyl-1-[4-[4-[2-(2-propyloxy)phenyl]-1,2,3,6-tetrahydropyridin-1-yl]butan-1-yl]-2,3-dihydroimidazol-2-one] | – | 26 nM | – | 27 nM | –
23 | O=C1CC2(CCCC2)CC(=O)N1CCCCN1CCN(c2ncccn2)CC1 [buspirone, 8-[4-[4-(2-pyrimidyl)-1-piperazinyl]butyl]-8-azaspiro[4,5]decane-7,9-dione] | – | – | – | – | inhibit the characteristic 5-HT syndrome produced by 5-MeO DMT
24 | O=C(CCCN1CCC(O)(c2ccc(Cl)cc2)CC1)c1ccc(F)cc1 [haloperidol, reference compound] | – | – | 0.36 µmol/kg | – | –
